Data on 14 compounds can be found in patent US20260092061A1, “COMPOUNDS FOR TARGETED PROTEIN DEGRADATION” (Amphista Therapeutics Limited, priority 2022, published 2026).

What is called DC50 is the midpoint of the concentration-degradation curve. As a reminder, the Dmax is the greatest extent of degradation seen.

The structures appear in SMILES notation. Where only a bound is given, the exact number is not on record here.

For the test, the target named is T1, BRD9 (Homo sapiens, UniProt Q9H8M2).
T1 sequence (Q9H8M2 1-597): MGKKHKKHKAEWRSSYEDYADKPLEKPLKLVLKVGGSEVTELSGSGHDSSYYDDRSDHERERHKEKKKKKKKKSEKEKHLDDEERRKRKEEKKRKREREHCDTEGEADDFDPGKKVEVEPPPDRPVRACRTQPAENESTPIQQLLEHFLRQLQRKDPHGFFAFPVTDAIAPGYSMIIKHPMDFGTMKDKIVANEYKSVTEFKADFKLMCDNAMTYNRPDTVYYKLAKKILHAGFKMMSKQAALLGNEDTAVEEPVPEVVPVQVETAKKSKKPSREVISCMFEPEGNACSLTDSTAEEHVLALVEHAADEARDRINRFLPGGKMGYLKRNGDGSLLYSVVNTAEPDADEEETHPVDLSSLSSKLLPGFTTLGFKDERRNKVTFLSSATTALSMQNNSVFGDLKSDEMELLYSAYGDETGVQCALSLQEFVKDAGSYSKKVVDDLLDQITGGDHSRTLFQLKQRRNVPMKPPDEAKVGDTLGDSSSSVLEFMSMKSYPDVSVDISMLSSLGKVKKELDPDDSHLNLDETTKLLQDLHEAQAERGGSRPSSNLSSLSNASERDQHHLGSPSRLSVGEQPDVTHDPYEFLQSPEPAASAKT
The experiment in a line: Degradation of BRD9 (IF), immunofluorescence in MV4-11 cells, 24 hours (Assay Protocol 2). Further details: A suspension of MV4-11 cells (ATCC CRL-9591) was prepared; host or cells: MV4-11. In kind it is cell-based. The settings on record: BRD9 degradation; for DC50: Assay protocol 2, read-out: DC50; for Dmax: MV4-11, Assay protocol 2, read-out: Dmax. An outline of the steps: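 MV4-11 cells treated with compound 24 h at 37° C., then fixed, permeabilised and immunostained for BRD9 (anti-BRD9 E4Q3F, Alexa 647 secondary, Hoechst counterstain). High-content imaging quantified nuclear BRD9 signal; % BRD9 remaining normalised to DMSO and 100 nM CFT-8634 controls.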

Take `CCC1c2cccc(CN3CCN(Cc4c(OC)cc(-c5cn(C)c(=O)c(C)c5C)cc4OC)CC34CC4)c2CCN1C(=O)/C(C#N)=C/C(C)(C)C` (mixture of isomers) [Compound C15, (E/Z)-2-(5-((7-(2,6-dimethoxy-4-(1,4,5-trimethyl-6-oxo-1,6-dihydropyridin-3-yl)benzyl)-4,7-diazaspiro[2.5]octan-4-yl)methyl)-1-ethyl-1,2,3,4-tetrahydroisoquinoline-2-carbonyl)-4,4-dimethylpent-2-enenitrile]: the DC50 is less than 1.25 nM and the Dmax is greater than 75%.
As to `COc1cc(-c2cn(C)c(=O)c(C)c2C)cc(OC)c1CN1CCC(O)(Cc2cccc3c2CCN(C(=O)/C(C#N)=C/C(C)(C)C)C3C)CC1` (mixture of isomers) [Compound B175, (E/Z)-2-(5-((1-(2,6-dimethoxy-4-(1,4,5-trimethyl-6-oxo-1,6-dihydropyridin-3-yl)benzyl)-4-hydroxypiperidin-4-yl)methyl)-1-methyl-1,2,3,4-tetrahydroisoquinoline-2-carbonyl)-4,4-dimethylpent-2-enenitrile], the DC50 was 25 to 1000 nM and the Dmax fell in the range of 40 to 70%.
`COc1cc(-c2cn(C)c(=O)c(C)c2C)cc(OC)c1CN1CCN(CCc2cccc3c2CCN(C(=O)/C(C#N)=C/C(C)(C)C)C3C)C2(CC2)C1` (mixture of isomers) [Compound B154]: the DC50 was 10 to 25 nM and the greatest degradation seen (Dmax) fell in the range of 40 to 70%.
The matching figures for `COc1cc(-c2cn(C)c(=O)c(C)c2C)cc(OC)c1CN1CCN(Cc2cccc3c2CCN(C(=O)/C(C#N)=C/C2(C)CCOCC2)C3C(C)C)C2(CC2)C1` (mixture of isomers) [Compound C23, (E/Z)-2-(5-((7-(2,6-dimethoxy-4-(1,4,5-trimethyl-6-oxo-1,6-dihydropyridin-3-yl)benzyl)-4,7-diazaspiro[2.5]octan-4-yl)methyl)-1-isopropyl-1,2,3,4-tetrahydroisoquinoline-2-carbonyl)-3-(4-methyltetrahydro-2H-pyran-4-yl)acrylonitrile]: less than 1.25 nM and greater than 75%.
As for `COc1cc(-c2cn(C)c(=O)c(C)c2C)cc(OC)c1CN1C[C@@H](C)N(C(=O)/C(C#N)=C/C(C)(C)C)C[C@@H]1C` (mixture of isomers) [Compound B190, (E/Z)-2-((2R,5S)-4-(2,6-dimethoxy-4-(1,4,5-trimethyl-6-oxo-1,6-dihydropyridin-3-yl)benzyl)-2,6-dimethylpiperazine-1-carbonyl)-4,4-dimethylpent-2-enenitrile], the half-maximal degradation concentration (DC50) lay in the range of 25 to 1000 nM and the Dmax was in the range of 40 to 70%.
As to `COc1cc(-c2cn(C)c(=O)c(C)c2C)cc(OC)c1CN1CCC(N(C)c2ccc3c(c2)[C@@H](C)N(C(=O)/C(C#N)=C/C(C)(C)C)CC3)CC1` (single isomer, unassigned) [Compound C65], the DC50 is 1.25 to 10 nM and the Dmax lay within 40 to 70%.
Regarding `CC[C@H]1c2cccc(CN3CCN(Cc4c(OC)cc(-c5cn(C)c(=O)c(C)c5C)cc4OC)C4(CC4)C3)c2CCN1C(=O)/C(C#N)=C/C(C)(C)C` (single isomer, unassigned) [Compound C90, (E/Z)-2-(5-((4-(2,6-dimethoxy-4-(1,4,5-trimethyl-6-oxo-1,6-dihydropyridin-3-yl)benzyl)-4,7-diazaspiro[2.5]octan-7-yl)methyl)-1-ethyl-1,2,3,4-tetrahydroisoquinoline-2-carbonyl)-4,4-dimethylpent-2-enenitrile], the DC50 was greater than 1000 nM and the Dmax is 40 to 70%.
As to `COc1cc(-c2cn(C)c(=O)c(C)c2C)cc(OC)c1CN1CCN(S(=O)(=O)c2cccc3c2CCN(C(=O)/C(C#N)=C\C(C)(C)C)C3C)CC1` (mixture of isomers) [Compound C75, (E/Z)-2-(5-((4-(2,6-dimethoxy-4-(1,4,5-trimethyl-6-oxo-1,6-dihydropyridin-3-yl)benzyl)piperazin-1-yl)sulfonyl)-1-methyl-1,2,3,4-tetrahydroisoquinoline-2-carbonyl)-4,4-dimethylpent-2-enenitrile], the DC50 is 25 to 1000 nM and the Dmax is greater than 75%.
The matching figures for `COc1cc(-c2cn(C)c(=O)c(C)c2C)cc(OC)c1CN1CCN(Cc2cccc3c2CCN(C(=O)/C(C#N)=C/C(C)(C)C(F)F)C3C)C2(CC2)C1` (mixture of isomers) [Compound B138, (E/Z)-2-(5-((7-(2,6-dimethoxy-4-(1,4,5-trimethyl-6-oxo-1,6-dihydropyridin-3-yl)benzyl)-4,7-diazaspiro[2.5]octan-4-yl)methyl)-1-methyl-1,2,3,4-tetrahydroisoquinoline-2-carbonyl)-5,5-difluoro-4,4-dimethylpent-2-enenitrile]: less than 1.25 nM and greater than 75%.
In the same order, the values of `COCC1(OC)c2cccc(CN3CCN(Cc4c(OC)cc(-c5cn(C)c(=O)c(C)c5C)cc4OC)CC34CC4)c2CCN1C(=O)/C(C#N)=C/C(C)(C)C` (mixture of isomers) [Compound C18, (E/Z)-2-(5-((7-(2,6-dimethoxy-4-(1,4,5-trimethyl-6-oxo-1,6-dihydropyridin-3-yl)benzyl)-4,7-diazaspiro[2.5]octan-4-yl)methyl)-1-methoxy-1-(methoxymethyl)-1,2,3,4-tetrahydroisoquinoline-2-carbonyl)-4,4-dimethylpent-2-enenitrile] are 1.25 to 10 nM and greater than 75%.
As for `COc1cc(-c2cn(C)c(=O)c(C)c2C)cc(OC)c1CN1CCN(Cc2cccc3c2CCN(C(=O)/C(C#N)=C/c2cccnc2OC)C3C)CC1` (mixture of isomers) [Compound B70, (E/Z)-2-(5-((4-(2,6-dimethoxy-4-(1,4,5-trimethyl-6-oxo-1,6-dihydropyridin-3-yl)benzyl)piperazin-1-yl)methyl)-1-methyl-1,2,3,4-tetrahydroisoquinoline-2-carbonyl)-3-(2-methoxypyridin-3-yl)acrylonitrile], the maximal degradation (Dmax) was 40 to 70%.
With `CCCC1c2cccc(CN3CCN(Cc4c(OC)cc(-c5cn(C)c(=O)c(C)c5C)cc4OC)CC34CC4)c2CCN1C(=O)/C(C#N)=C/C(C)(C)C` (mixture of isomers) [Compound C17, (E/Z)-2-(5-((7-(2,6-dimethoxy-4-(1,4,5-trimethyl-6-oxo-1,6-dihydropyridin-3-yl)benzyl)-4,7-diazaspiro[2.5]octan-4-yl)methyl)-1-propyl-1,2,3,4-tetrahydroisoquinoline-2-carbonyl)-4,4-dimethylpent-2-enenitrile], the 50% degradation concentration (DC50) fell in the range of 1.25 to 10 nM and the maximal degradation (Dmax) is greater than 75%.
The matching figures for `COc1cc(-c2cn(C)c(=O)c(C)c2C)cc(OC)c1CN1CCN(Cc2cccc3c2CCN(C(=O)/C(C#N)=C/c2cnc(C)cn2)C3C)CC1` (mixture of isomers) [Compound B89, (E/Z)-2-(5-((4-(2,6-dimethoxy-4-(1,4,5-trimethyl-6-oxo-1,6-dihydropyridin-3-yl)benzyl)piperazin-1-yl)methyl)-1-methyl-1,2,3,4-tetrahydroisoquinoline-2-carbonyl)-3-(5-methylpyrazin-2-yl)acrylonitrile]: less than 1.25 nM and greater than 75%.
Regarding `COc1cc(-c2cn(C)c(=O)c(C)c2C)cc(OC)c1CN1CCC2(CCN(c3ccc4c(c3)[C@H](C)N(C(=O)/C(C#N)=C/C(C)(C)C)CC4)CC2)C1` [Compound C54], the DC50 lay in the range of 25 to 1000 nM and the greatest degradation seen (Dmax) was in the range of 40 to 70%.
